Measured values published in patent US8575068B2, “Pyrazinothiazines having herbicidal action” (BASF SE, priority 2010, dated 2013).

Test system: Galium aparine
Assay: Greenhouse post-emergence herbicidal activity against GALAP
Format: in vivo
Details: application rate 0.5 kg/ha, scale 0 to 100
Text: The seeds of the test plants were sown separately for each species. For the post-emergence treatment, the test plants were first grown to a height of 3 to 15 cm, depending on the plant habit, and only then treated with the active ingredients which had been suspended or emulsified in water. For this purpose, the test plants were either sown directly and grown in the same containers, or they were first grown separately as seedlings and transplanted into the test containers a few days prior to treatment. Depending on the species, the plants were kept at 10-25° C. or 20-35° C. The test period extended over 2 to 4 weeks. During this time, the plants were tended, and their response to the individual treatments was evaluated. Evaluation was carried out using a scale from 0 to 100. 100 means no emergence of the plants, or complete destruction of at least the aerial moieties, and 0 means no damage, or normal course of growth. A good herbicidal activity is given at values of at least 70 and a very good herbicidal activity is given at values of at least 85. The plants used in the greenhouse experiments belonged to the following species: [table]

Q: For `COCCOc1cccc(C2=C(O)c3nccnc3N(CC(F)F)S2(=O)=O)c1C(F)(F)F` [I-6, 1-(2,2-difluoroethyl)-3-[3-(2-methoxyethoxy)-2-(trifluoromethyl)phenyl]-2,2-dioxo-pyrazino[2,3-c]thiazin-4-ol], which “herbicidal activity against GALAP” value is on record?
A: very good (a very good herbicidal activity is given at values of at least 85)
